Data published in PubChem BioAssay AID2060326 (Molecular Pharmacology Branch, DTP, NCI, 2025).

Tested on: MDA-MB-468 multi-cell spheroids, viability
Test: Anticancer human tumor MDA-MB-468 cell line growth inhibition [IpAb];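 further: spheroids exposed to agents for seven days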;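 on viability, T/C: 100% = DMSO vehicle control viability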
Settings: for IC50: curve of first compound; for viability, T/C: stronger effect = lower value
Procedure, shortened: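 Combinations with ipatasertib or abemaciclib were tested on tumour spheroids holding HUVEC (25%) and MSC (15%) alongside 60% malignant cells. Top concentration was at or near clinical Cmax (10 microM if undefined), descending in half-log steps.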

[1] = second compound 0.1 µM, first compound 0.0316 µM
[2] = second compound 0.1 µM, first compound 0.1 µM
[3] = second compound 0.316 µM, first compound 0.0316 µM
[4] = second compound 0.316 µM, first compound 0.1 µM
[5] = second compound 1 µM, first compound 0.0316 µM
[6] = second compound 1 µM, first compound 0.1 µM
[7] = second compound 3.16 µM, first compound 0.0316 µM
[8] = second compound 3.16 µM, first compound 0.1 µM
[9] = second compound 10 µM, first compound 0.0316 µM
[10] = second compound 10 µM, first compound 0.1 µM

## C=CC(=O)N1CCN(c2nc(=O)n(-c3c(C)ccnc3C(C)C)c3nc(-c4c(O)cccc4F)c(F)cc23)C(C)C1 (stereo not given) + CC(C)NCC(C(=O)N1CCN(c2ncnc3c2C(C)CC3O)CC1)c1ccc(Cl)cc1
Second compound 0.1 µM
  IC50: 7.04 µM
Second compound 0.316 µM
  IC50: 4.93 µM
Second compound 1 µM
  IC50: 4.17 µM
Second compound 3.16 µM
  IC50: < 0.0316 µM
Second compound 10 µM
  IC50: < 0.0316 µM
[1]
  viability, T/C: 115%
[2]
  viability, T/C: 123%
Second compound 0.1 µM, first compound 0.316 µM
  viability, T/C: 118%
Second compound 0.1 µM, first compound 1 µM
  viability, T/C: 105%
Second compound 0.1 µM, first compound 3.16 µM
  viability, T/C: 78.2%
Second compound 0.1 µM, first compound 10 µM
  viability, T/C: 37.8%
[3]
  viability, T/C: 94.4%
[4]
  viability, T/C: 69.8%
Second compound 0.316 µM, first compound 0.316 µM
  viability, T/C: 68.4%
Second compound 0.316 µM, first compound 1 µM
  viability, T/C: 71.6%
Second compound 0.316 µM, first compound 3.16 µM
  viability, T/C: 67.3%
Second compound 0.316 µM, first compound 10 µM
  viability, T/C: 27.4%
[5]
  viability, T/C: 64.5%
[6]
  viability, T/C: 55.9%
Second compound 1 µM, first compound 0.316 µM
  viability, T/C: 62.4%
Second compound 1 µM, first compound 1 µM
  viability, T/C: 57.6%
Second compound 1 µM, first compound 3.16 µM
  viability, T/C: 59.8%
Second compound 1 µM, first compound 10 µM
  viability, T/C: 19.2%
[7]
  viability, T/C: 42.3%
[8]
  viability, T/C: 41.2%
Second compound 3.16 µM, first compound 0.316 µM
  viability, T/C: 44.5%
Second compound 3.16 µM, first compound 1 µM
  viability, T/C: 39.6%
Second compound 3.16 µM, first compound 3.16 µM
  viability, T/C: 29.6%
Second compound 3.16 µM, first compound 10 µM
  viability, T/C: 8.37%
[9]
  viability, T/C: 19.5%
[10]
  viability, T/C: 22.1%
Second compound 10 µM, first compound 0.316 µM
  viability, T/C: 20.5%
Second compound 10 µM, first compound 1 µM
  viability, T/C: 19.3%
Second compound 10 µM, first compound 3.16 µM
  viability, T/C: 13.8%
Second compound 10 µM, first compound 10 µM
  viability, T/C: 5.04%

## CC(C)(C)c1cnc(CSc2cnc(NC(=O)C3CCNCC3)s2)o1 + CC(C)NCC(C(=O)N1CCN(c2ncnc3c2C(C)CC3O)CC1)c1ccc(Cl)cc1
Second compound 0.1 µM
  IC50: 0.0691 µM
Second compound 0.316 µM
  IC50: 0.0453 µM
Second compound 1 µM
  IC50: 0.0369 µM
Second compound 3.16 µM
  IC50: < 0.00949 µM
Second compound 10 µM
  IC50: < 0.00949 µM
Second compound 0.1 µM, first compound 0.00949 µM
  viability, T/C: 110%
Second compound 0.1 µM, first compound 0.03 µM
  viability, T/C: 91.4%
Second compound 0.1 µM, first compound 0.0949 µM
  viability, T/C: 35%
Second compound 0.1 µM, first compound 0.3 µM
  viability, T/C: 0.3%
Second compound 0.1 µM, first compound 0.949 µM
  viability, T/C: 0.19%
Second compound 0.1 µM, first compound 3 µM
  viability, T/C: 0.32%
Second compound 0.316 µM, first compound 0.00949 µM
  viability, T/C: 73.9%
Second compound 0.316 µM, first compound 0.03 µM
  viability, T/C: 67.4%
Second compound 0.316 µM, first compound 0.0949 µM
  viability, T/C: 18.8%
Second compound 0.316 µM, first compound 0.3 µM
  viability, T/C: 0.27%
Second compound 0.316 µM, first compound 0.949 µM
  viability, T/C: 0.15%
Second compound 0.316 µM, first compound 3 µM
  viability, T/C: 0.27%
Second compound 1 µM, first compound 0.00949 µM
  viability, T/C: 62.2%
Second compound 1 µM, first compound 0.03 µM
  viability, T/C: 58.7%
Second compound 1 µM, first compound 0.0949 µM
  viability, T/C: 10%
Second compound 1 µM, first compound 0.3 µM
  viability, T/C: 0.2%
Second compound 1 µM, first compound 0.949 µM
  viability, T/C: 0.14%
Second compound 1 µM, first compound 3 µM
  viability, T/C: 0.24%
Second compound 3.16 µM, first compound 0.00949 µM
  viability, T/C: 41.5%
Second compound 3.16 µM, first compound 0.03 µM
  viability, T/C: 35.4%
Second compound 3.16 µM, first compound 0.0949 µM
  viability, T/C: 11.5%
Second compound 3.16 µM, first compound 0.3 µM
  viability, T/C: 0.23%
Second compound 3.16 µM, first compound 0.949 µM
  viability, T/C: 0.13%
Second compound 3.16 µM, first compound 3 µM
  viability, T/C: 0.31%
Second compound 10 µM, first compound 0.00949 µM
  viability, T/C: 21.3%
Second compound 10 µM, first compound 0.03 µM
  viability, T/C: 18.1%
Second compound 10 µM, first compound 0.0949 µM
  viability, T/C: 1.19%
Second compound 10 µM, first compound 0.3 µM
  viability, T/C: 0.32%
Second compound 10 µM, first compound 0.949 µM
  viability, T/C: 0.24%
Second compound 10 µM, first compound 3 µM
  viability, T/C: 0.65%

## Cn1ncnc1[C@H]1c2n[nH]c(=O)c3cc(F)cc(c23)N[C@@H]1c1ccc(F)cc1 + CC(C)NCC(C(=O)N1CCN(c2ncnc3c2C(C)CC3O)CC1)c1ccc(Cl)cc1
Second compound 0.1 µM
  IC50: > 0.1 µM
Second compound 0.316 µM
  IC50: > 0.1 µM
Second compound 1 µM
  IC50: 0.0179 µM
Second compound 3.16 µM
  IC50: < 0.000316 µM
Second compound 10 µM
  IC50: < 0.000316 µM
Second compound 0.1 µM, first compound 0.000316 µM
  viability, T/C: 101%
Second compound 0.1 µM, first compound 0.001 µM
  viability, T/C: 102%
Second compound 0.1 µM, first compound 0.00316 µM
  viability, T/C: 86.9%
Second compound 0.1 µM, first compound 0.01 µM
  viability, T/C: 73.8%
[1]
  viability, T/C: 85.8%
[2]
  viability, T/C: 65.7%
Second compound 0.316 µM, first compound 0.000316 µM
  viability, T/C: 62%
Second compound 0.316 µM, first compound 0.001 µM
  viability, T/C: 70.7%
Second compound 0.316 µM, first compound 0.00316 µM
  viability, T/C: 62.1%
Second compound 0.316 µM, first compound 0.01 µM
  viability, T/C: 60.2%
[3]
  viability, T/C: 55.5%
[4]
  viability, T/C: 57.7%
Second compound 1 µM, first compound 0.000316 µM
  viability, T/C: 60.8%
Second compound 1 µM, first compound 0.001 µM
  viability, T/C: 59.2%
Second compound 1 µM, first compound 0.00316 µM
  viability, T/C: 55.1%
Second compound 1 µM, first compound 0.01 µM
  viability, T/C: 54.2%
[5]
  viability, T/C: 46.2%
[6]
  viability, T/C: 41.8%
Second compound 3.16 µM, first compound 0.000316 µM
  viability, T/C: 38.9%
Second compound 3.16 µM, first compound 0.001 µM
  viability, T/C: 37.8%
Second compound 3.16 µM, first compound 0.00316 µM
  viability, T/C: 40%
Second compound 3.16 µM, first compound 0.01 µM
  viability, T/C: 34.9%
[7]
  viability, T/C: 34%
[8]
  viability, T/C: 26.6%
Second compound 10 µM, first compound 0.000316 µM
  viability, T/C: 19.3%
Second compound 10 µM, first compound 0.001 µM
  viability, T/C: 22.5%
Second compound 10 µM, first compound 0.00316 µM
  viability, T/C: 18.6%
Second compound 10 µM, first compound 0.01 µM
  viability, T/C: 18.8%
[9]
  viability, T/C: 16%
[10]
  viability, T/C: 15.6%
